From US11590116B2 (THERAVANCE BIOPHARMA R&D IP, LLC, priority 2019, dated 2023)

Assays:
[1] = molecular target: T1, recombinant human ALK5 (TGF-βR1) protein (Homo sapiens, UniProt P36897); test: Biochemical ALK5 (TGF-βR1) assay to measure pKi (LANCE Ultra ULight kinase assay); details: apparent pKi from pIC50 by Cheng-Prusoff, read-out: ALK5 pKi (converted)
T1 construct: purchased Life Technologies PR9075A
T1 sequence (P36897 34-503): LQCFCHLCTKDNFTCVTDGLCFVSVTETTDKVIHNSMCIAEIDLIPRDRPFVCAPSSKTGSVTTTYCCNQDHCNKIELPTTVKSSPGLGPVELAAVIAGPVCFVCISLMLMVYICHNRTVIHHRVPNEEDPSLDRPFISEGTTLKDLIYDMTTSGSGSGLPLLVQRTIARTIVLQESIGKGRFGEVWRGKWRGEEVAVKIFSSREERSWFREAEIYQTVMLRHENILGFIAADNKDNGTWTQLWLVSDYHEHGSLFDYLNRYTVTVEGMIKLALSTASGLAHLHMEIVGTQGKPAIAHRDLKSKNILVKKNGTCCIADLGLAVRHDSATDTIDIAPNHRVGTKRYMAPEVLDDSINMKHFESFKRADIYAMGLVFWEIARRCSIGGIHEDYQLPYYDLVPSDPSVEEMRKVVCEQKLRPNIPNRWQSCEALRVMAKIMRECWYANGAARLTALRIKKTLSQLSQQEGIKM
In short: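 Compounds (10 μM to 25 pM) were preincubated 60 min at room temperature with enzyme, then reactions were started with ATP (125 μM stock, 5× final) and run 60 min at 37 °C. EDTA-containing Eu-anti-phospho-Topo IIα (Thr1342) antibody stopped the reaction; TR-FRET read at 665 nm. pIC50 from 4-parameter fit, converted to pKi via Cheng-Prusoff.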

[2] = system: TGF-β-stimulated SMAD3 phosphorylation in BEAS-2B cells; test: Cellular ALK5 potency assay, inhibition of TGF-β stimulated pSMAD3 formation in BEAS-2B cells; type: cell-based; details: Homo sapiens; inhibition of TGF-β stimulated pSMAD3 formation, BEAS-2B cells; read-out: BEAS2B pIC50 (converted)
In short: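 Potency is reported as pIC50, derived from concentration-dependent reduction of pSMAD3 AlphaLISA signal against TGF-β-stimulated cells without compound. BEAS-2B cells received compound for 1 h before a 30-min stimulation with 10 ng/mL TGF-β.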

For `Cc1cccc(-c2[nH]ncc2-c2ccc3ncc(C(=O)OC4CCNCC4)cc3n2)n1` [Compound 485, 4-piperidyl 6-[5-(6-methyl-2-pyridyl)-1H-pyrazol-4-yl]-1,5-naphthyridine-3-carboxylate], the Ki [1] was 0.0398 to 0.316 nM and the IC50 [2] was 25.1 to 158 nM.

For `Cc1cccc(-c2n[nH]cc2-c2ccc3ncc(OCC(=O)N4CCOCC4)cc3n2)n1` [Compound 486, 2-[[6-[3-(6-methyl-2-pyridyl)-1H-pyrazol-4-yl]-1,5-naphthyridin-3-yl]oxy]-1-morpholino-ethanone], the Ki [1] was 3.98 to 31.6 nM and the IC50 [2] was 1580 to 10000 nM.

For `CNCCn1cc(-c2cnc3ccc(-c4c[nH]nc4-c4cccc(C)n4)nc3c2)cn1` [Compound 487, N-methyl-2-[4-[6-[3-(6-methyl-2-pyridyl)-1H-pyrazol-4-yl]-1,5-naphthyridin-3-yl]pyrazol-1-yl]ethanamine], the Ki [1] was < 0.0316 nM and the IC50 [2] was < 20 nM.

`Cc1cccc(-c2n[nH]cc2-c2ccc3ncc(Nc4ccc(N5CCNCC5)cc4)cc3c2)n1` [Compound 488, 6-[3-(6-methyl-2-pyridyl)-1H-pyrazol-4-yl]-N-(4-piperazin-1-ylphenyl)quinolin-3-amine] was tested, and the Ki [1] was 0.0398 to 0.316 nM and the IC50 [2] was 25.1 to 158 nM.

`Cc1cccc(-c2n[nH]cc2-c2ccc3ncc(-c4[nH]nc5c4CNCC5)cc3n2)n1` [Compound 489, 2-[3-(6-methyl-2-pyridyl)-1H-pyrazol-4-yl]-7-(4,5,6,7-tetrahydro-2H-pyrazolo[4,3-c]pyridin-3-yl)-1,5-naphthyridine] gave a Ki [1] of 0.0398 to 0.316 nM and an IC50 [2] of 200 to 1260 nM.

In the case of `Cc1nc(-c2n[nH]cc2-c2ccc3ncc(-c4cnn([C@@H]5CCCC[C@H]5N)c4)cc3n2)ccc1F` [Compound 490, (1R,2R)-2-(4-(6-(3-(5-fluoro-6-methylpyridin-2-yl)-1H-pyrazol-4-yl)-1,5-naphthyridin-3-yl)-1H-pyrazol-1-yl)cyclohexan-1-amine], the Ki [1] is reported as < 0.0316 nM and the IC50 [2] is reported as < 20 nM.

`Cc1cccc(-c2[nH]cnc2-c2ccc3ncc(N4CCNC(CC(=O)OCC5CNC5)C4)cc3c2)n1` (centres unmarked) [Compound 491, azetidin-3-ylmethyl 2-[4-[6-[5-(6-methyl-2-pyridyl)-1H-imidazol-4-yl]-3-quinolyl]piperazin-2-yl]acetate] gave a Ki [1] of 0.0398 to 0.316 nM and an IC50 [2] of 200 to 1260 nM.

In the case of `Cc1cccc(-c2n[nH]cc2-c2ccc3ncc(N4CCC[C@H](N(C)C)C4)cc3n2)n1` [Compound 492, (3S)-N,N-dimethyl-1-[6-[3-(6-methyl-2-pyridyl)-1H-pyrazol-4-yl]-1,5-naphthyridin-3-yl]piperidin-3-amine], the Ki [1] is reported as 0.0398 to 0.316 nM and the IC50 [2] is reported as 25.1 to 158 nM.

`Cc1cccc(-c2[nH]cnc2-c2ccc3ncc(-c4cccc5c4CNCC5)cc3c2)n1` [Compound 493, 6-[5-(6-methyl-2-pyridyl)-1H-imidazol-4-yl]-3-(1,2,3,4-tetrahydroisoquinolin-8-yl)quinoline] showed a Ki [1] of 3.98 to 31.6 nM and an IC50 [2] of 200 to 1260 nM.

Compound `CNCCn1ccc(-c2cnc3ccc(-c4nc[nH]c4-c4cccc(C)n4)cc3c2)n1` [Compound 494, N-methyl-2-[3-[6-[5-(6-methyl-2-pyridyl)-1H-imidazol-4-yl]-3-quinolyl]pyrazol-1-yl]ethanamine] has a Ki [1] of 0.0398 to 0.316 nM and an IC50 [2] of 25.1 to 158 nM.

`Cc1cccc(-c2n[nH]cc2-c2ccc3ncc(CN4CC(N5CCOCC5)C4)cc3n2)n1` [Compound 495, 4-[1-[[6-[3-(6-methyl-2-pyridyl)-1H-pyrazol-4-yl]-1,5-naphthyridin-3-yl]methyl]azetidin-3-yl]morpholine] gave a Ki [1] of 3.98 to 31.6 nM and an IC50 [2] of 200 to 1260 nM.

Work on `Cc1cccc(-c2[nH]cnc2-c2ccc3ncc(NCCC4CCNCC4)cc3c2)n1` [Compound 496, 6-[5-(6-methyl-2-pyridyl)-1H-imidazol-4-yl]-N-[2-(4-piperidyl)ethyl]quinolin-3-amine] yielded a Ki [1] of 0.0398 to 0.316 nM and an IC50 [2] of 25.1 to 158 nM.

`CNCCn1cc(-c2cnc3ccc(-c4c(-c5cccc(C)n5)nnn4Cc4ccccc4)cc3c2)cn1` [Compound 498, 2-[4-[6-[3-benzyl-5-(6-methyl-2-pyridyl)triazol-4-yl]-3-quinolyl]pyrazol-1-yl]-N-methyl-ethanamine] gave a Ki [1] of 0.0398 to 0.316 nM and an IC50 [2] of 25.1 to 158 nM.

`CCOC(=O)CCc1cnc2ccc(-c3c[nH]nc3-c3cccc(C)n3)nc2c1` [Compound 499, ethyl 3-[6-[3-(6-methyl-2-pyridyl)-1H-pyrazol-4-yl]-1,5-naphthyridin-3-yl]propanoate] was tested, and the Ki [1] was 0.0398 to 0.316 nM and the IC50 [2] was 25.1 to 158 nM.

`Cc1cccc(-c2[nH]cnc2-c2ccc3ncc(N4CCNC(CC(=O)O)C4)cc3c2)n1` (centres unmarked) [Compound 500, 2-(4-(6-(5-(6-methylpyridin-2-yl)-1H-imidazol-4-yl)quinolin-3-yl)piperazin-2-yl)acetic acid] showed a Ki [1] of 0.0398 to 0.316 nM and an IC50 [2] of 1580 to 10000 nM.

`CNC1CCN(c2cnc3ccc(-c4c(-c5cccc(C)n5)nc5ccccn45)nc3c2)CC1` [Compound 501, N-methyl-1-[6-[2-(6-methyl-2-pyridyl)imidazo[1,2-a]pyridin-3-yl]-1,5-naphthyridin-3-yl]piperidin-4-amine] was tested, and the Ki [1] was 0.0398 to 0.316 nM and the IC50 [2] was 25.1 to 158 nM.

For `Cc1cccc(-c2n[nH]cc2-c2ccc3ncc(C4=CCC(NCc5ccccc5)CC4)cc3n2)n1` (centres unmarked) [Compound 502, N-benzyl-4-[6-[3-(6-methyl-2-pyridyl)-1H-pyrazol-4-yl]-1,5-naphthyridin-3-yl]cyclohex-3-en-1-amine], the Ki [1] was < 0.0316 nM and the IC50 [2] was 25.1 to 158 nM.

`Cc1nc(-c2n[nH]cc2-c2ccc3ncc(-c4c(C)nn5c4NCCC5)cc3n2)ccc1F` [Compound 504, 2-[3-(5-fluoro-6-methyl-2-pyridyl)-1H-pyrazol-4-yl]-7-(2-methyl-4,5,6,7-tetrahydropyrazolo[1,5-a]pyrimidin-3-yl)-1,5-naphthyridine] gave a Ki [1] of 0.398 to 3.16 nM and an IC50 [2] of 25.1 to 158 nM.

`Cc1cccc(-c2n[nH]cc2-c2ccc3ncc(N(C)CCCN4CCOCC4)cc3n2)n1` [Compound 506, N-methyl-6-[3-(6-methyl-2-pyridyl)-1H-pyrazol-4-yl]-N-(3-morpholinopropyl)-1,5-naphthyridin-3-amine] showed a Ki [1] of 0.0398 to 0.316 nM and an IC50 [2] of 25.1 to 158 nM.

`CNc1cnc2ccc(-c3c(-c4cccc(C)n4)n[nH]c3OC)nc2c1` [Compound 507, 6-[5-methoxy-3-(6-methyl-2-pyridyl)-1H-pyrazol-4-yl]-N-methyl-1,5-naphthyridin-3-amine] was tested, and the Ki [1] was 0.398 to 3.16 nM and the IC50 [2] was 200 to 1260 nM.

`CCN1CCN(CCNc2cnc3ccc(-c4c[nH]nc4-c4cccc(C)n4)nc3c2)CC1` [Compound 508, N-[2-(4-ethylpiperazin-1-yl)ethyl]-6-[3-(6-methyl-2-pyridyl)-1H-pyrazol-4-yl]-1,5-naphthyridin-3-amine] showed a Ki [1] of 0.0398 to 0.316 nM and an IC50 [2] of 25.1 to 158 nM.

`Cc1nc(-c2n[nH]cc2-c2ccc3ncc(N4CCN(CCO)CC4)cc3n2)ccc1F` [Compound 509, 2-[4-[6-[3-(5-fluoro-6-methyl-2-pyridyl)-1H-pyrazol-4-yl]-1,5-naphthyridin-3-yl]piperazin-1-yl]ethanol] was tested, and the Ki [1] was < 0.0316 nM and the IC50 [2] was 25.1 to 158 nM.

Compound `Cc1cccc(-c2[nH]cnc2-c2ccc3ncc(Nc4ccc(N5CCN(Cc6ccccc6)CC5)cn4)cc3c2)n1` [Compound 510, N-[5-(4-benzylpiperazin-1-yl)-2-pyridyl]-6-[5-(6-methyl-2-pyridyl)-1H-imidazol-4-yl]quinolin-3-amine] has a Ki [1] of 0.398 to 3.16 nM and an IC50 [2] of 25.1 to 158 nM.

In the case of `Cc1cccc(-c2nc3sccn3c2-c2ccc3ncc(Br)cc3n2)n1` [Compound 511, 5-(7-Bromo-1,5-naphthyridin-2-yl)-6-(6-methylpyridin-2-yl)imidazo[2,1-b]thiazole], the Ki [1] is reported as 0.398 to 3.16 nM and the IC50 [2] is reported as 25.1 to 158 nM.

`CNCCn1cc(-c2cnc3ccc(-c4c(-c5cccc(C)n5)n[nH]c4N)nc3c2)cn1` [Compound 512, 4-[7-[1-[2-(methylamino)ethyl]pyrazol-4-yl]-1,5-naphthyridin-2-yl]-3-(6-methyl-2-pyridyl)-1H-pyrazol-5-amine] was tested, and the Ki [1] was 0.0398 to 0.316 nM and the IC50 [2] was 200 to 1260 nM.

For `Cc1nc(-c2n[nH]cc2-c2ccc3ncc(N4CCC(N(C)C)CC4)cc3n2)ccc1F` [Compound 514, 1-[6-[3-(5-fluoro-6-methyl-2-pyridyl)-1H-pyrazol-4-yl]-1,5-naphthyridin-3-yl]-N,N-dimethyl-piperidin-4-amine], the Ki [1] was 0.0398 to 0.316 nM and the IC50 [2] was 25.1 to 158 nM.

For `Cc1nc(-c2n[nH]cc2-c2ccc3ncc(-c4[nH]nc5c4CCN5)cc3n2)ccc1F` [Compound 515, 2-[3-(5-fluoro-6-methyl-2-pyridyl)-1H-pyrazol-4-yl]-7-(2,4,5,6-tetrahydropyrrolo[2,3-c]pyrazol-3-yl)-1,5-naphthyridine], the Ki [1] was < 0.0316 nM and the IC50 [2] was 25.1 to 158 nM.

`Cc1cccc(-c2n[nH]cc2-c2ccc3ncc(NCCN4C[C@@H](C)N[C@@H](C)C4)cc3n2)n1` [Compound 516, 6-[3-(6-methyl-2-pyridyl)-1H-pyrazol-4-yl]-N-[2-[rac-(3R,5S)-3,5-dimethylpiperazin-1-yl]ethyl]-1,5-naphthyridin-3-amine] gave a Ki [1] of 0.0398 to 0.316 nM and an IC50 [2] of 25.1 to 158 nM.
